Common to all, as to format: cell-based
One experiment concerns CD4 T cells. The experiment in a line: CD69 expression on aCD3/aCD28 stimulated isolated human CD4 T cells (flow cytometry). As to conditions: 24 h after TCR stimulation, read-out: Activity Class CD69 (CD4). The essentials:
(§1)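 Isolated CD4 and CD8 T cells plated at 80000 cells per well in Xvivo medium and stimulated with anti-CD3/28 mAbs in presence of compound. CD69 expression measured by flow cytometry 24 h after TCR stimulation.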

Experiment [1] deals with aCD3/aCD28-stimulated human PBMCs. Briefly: Cytokine production in aCD3/aCD28 stimulated human PBMCs. As to conditions: PBMC, 18 h. The essentials: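 Compound effects measured in buffy-coat PBMCs activated 18 h at 37° C by 1 μg/mL each of soluble anti-CD3 (OKT3) and anti-CD28 (28.2), 1e6 cells/mL. Cytokines in harvested supernatants read by MSD or HTRF.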
The subject of another experiment is CD8 T cells. Briefly: CD69 expression on aCD3/aCD28 stimulated isolated human CD8 T cells (flow cytometry). As to conditions: T-cell, 24 h after TCR stimulation, read-out: Activity Class CD69 (CD8). Summed up:
as §1

The test system of experiment [2] is aCD3/aCD28-stimulated human CD4+-T-cells. The experiment in a line: IL-2 production and activation markers in aCD3/aCD28 stimulated isolated human CD4+-T-cells. The conditions noted are these: IL-2 production at 3 μM compound. Summed up: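 CD4+ T cells isolated from buffy-coat PBMCs by microbeads were plated in Xvivo medium (1.5*10^5 cells/well) and stimulated with anti-CD3/28 mAbs plus compound. IL-2 measured by ELISA in supernatants at 24 h or 48 h; CD25 and proliferation by flow cytometry, CD69 at 24 h. Activity classes based on IL-2 at 3 μM compound.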

The mark [3] stands for this setting: enhancement of IFN-γ production, read-out: Activity Class IFN-γ.
The mark [4] stands for this setting: enhancement of IL-2 production, read-out: Activity Class IL-2.

Here are results for ten compounds from patent US10472341B2, “Bicyclic tetrahydrothiazepine derivatives useful for the treatment of neoplastic and/or infectious diseases” (APEIRON BIOLOGICS AG, priority 2015, dated 2019).

Like-named read-outs stand apart in the source and are kept apart here. Where only a bound is given, the exact number is not on record here.

Turning to `Cl.N[C@H]1CS(=O)(=O)c2cc(F)c(C(=O)NCc3ccc(F)cc3)cc2N(Cc2ccc(Cl)cc2)C1=O` [Example 68, (3R)-3-amino-5-[(4-chlorophenyl)methyl]-8-fluoro-N-[(4-fluorophenyl)methyl]-1,1,4-trioxo-2,3,4,5-tetrahydro-1λ^6,5-benzothiazepine-7-carboxamide hydrochloride], the EC50 (in the experiment with CD4 T cells; in experiment [1] (setting [3]); in experiment [1] (setting [4]); in the experiment on CD8 T cells) was less than 1580 nM throughout. Besides, the “Activity Class CD4+” value in experiment [2] is listed as “A (IL-2 production at 3 μM compound concentration >10 ng/mL)”.

For the compound `CCCCNC(=O)c1cc2c(cc1F)S(=O)(=O)C[C@H](N)C(=O)N2Cc1ccc(Cl)cc1.Cl` [Example 69, (3R)-3-amino-N-butyl-5-[(4-chlorophenyl)methyl]-8-fluoro-1,1,4-trioxo-2,3,4,5-tetrahydro-1λ^6,5-benzothiazepine-7-carboxamide hydrochloride], the EC50 (in the experiment on CD4 T cells; in experiment [1] (setting [3]); in experiment [1] (setting [4]); with CD8 T cells) was less than 1580 nM each time. The “Activity Class CD4+” value in experiment [2] is listed as “A (IL-2 production at 3 μM compound concentration >10 ng/mL)”.

`Cl.N[C@H]1CS(=O)(=O)c2cc(F)c(C(=O)NCC3CCOCC3)cc2N(Cc2ccc(Cl)cc2)C1=O` [Example 71, (3R)-3-amino-5-[(4-chlorophenyl)methyl]-8-fluoro-N-(oxan-4-ylmethyl)-1,1,4-trioxo-2,3,4,5-tetrahydro-1λ^6,5-benzothiazepine-7-carboxamide hydrochloride]: the EC50 (with CD4 T cells; in experiment [1] (setting [3]); in experiment [1] (setting [4]); with CD8 T cells) was less than 1580 nM throughout. The “Activity Class CD4+” value in experiment [2] is “B (IL-2 production at 3 μM compound concentration between 2-10 ng/mL)”.

For the compound `Cl.N[C@H]1CS(=O)(=O)c2cc(F)c(C(=O)NCC3CCOCC3)cc2N(Cc2ccc(OC(F)(F)F)cc2)C1=O` [Example 72, (3R)-3-amino-8-fluoro-N-(oxan-4-ylmethyl)-1,1,4-trioxo-5-{[4-(trifluoromethoxy)-phenyl]methyl}-2,3,4,5-tetrahydro-1λ^6,5-benzothiazepine-7-carboxamide hydrochloride], the EC50 with CD4 T cells was less than 1580 nM; in experiment [1] (setting [3]) it was less than 1580 nM; in experiment [1] (setting [4]) it was less than 1580 nM; in the experiment with CD8 T cells it was 1580 to 5010 nM. Further, the “Activity Class CD4+” value in experiment [2] is “A (IL-2 production at 3 μM compound concentration >10 ng/mL)”.

On to `Cl.N[C@H]1CS(=O)(=O)c2cc(F)c(C(=O)NCCCC(F)(F)F)cc2N(Cc2ccc(OC(F)(F)F)cc2)C1=O` [Example 73, (3R)-3-amino-8-fluoro-1,1,4-trioxo-N-(4,4,4-trifluorobutyl)-5-{[4-(trifluoromethoxy)-phenyl]methyl}-2,3,4,5-tetrahydro-1λ^6,5-benzothiazepine-7-carboxamide hydrochloride], for which the EC50 (in the experiment with CD4 T cells; in experiment [1] (setting [3]); in experiment [1] (setting [4]); in the experiment on CD8 T cells) was less than 1580 nM each time. In addition, the “Activity Class CD4+” value in experiment [2] is given as “A (IL-2 production at 3 μM compound concentration >10 ng/mL)”.

As to `Cl.N[C@H]1CS(=O)(=O)c2cc(F)c(C(=O)NC3CCC(F)(F)C3)cc2N(Cc2ccc(Cl)cc2)C1=O` (stereo partly drawn) [Example 105, (3R)-3-amino-5-[(4-chlorophenyl)methyl]-N-(3,3-difluorocyclopentyl)-8-fluoro-1,1,4-trioxo-2,3,4,5-tetrahydro-1λ^6,5-benzothiazepine-7-carboxamide hydrochloride], the EC50 (in the experiment on CD4 T cells; in experiment [1] (setting [3]); in experiment [1] (setting [4]); in the experiment with CD8 T cells) was less than 1580 nM each time. The “Activity Class CD4+” value in experiment [2] is reported as “A (IL-2 production at 3 μM compound concentration >10 ng/mL)”.

`N[C@H]1CS(=O)(=O)c2ccc(C(=O)NCCN3CCOCC3)cc2N(Cc2ccc(Cl)cc2)C1=O` [Example 176, (3R)-3-amino-5-[(4-chlorophenyl)methyl]-N-[2-(morpholin-4-yl)ethyl]-1,1,4-trioxo-2,3,4,5-tetrahydro-1λ^6,5-benzothiazepine-7-carboxamide]: the EC50 (with CD4 T cells; in experiment [1] (setting [3]); in experiment [1] (setting [4]); in the experiment on CD8 T cells) was greater than 5010 nM in each case.

With `C#CCOc1ccc(CNC(=O)c2cc3c(cc2F)S(=O)(=O)C[C@H](N)C(=O)N3Cc2ccc(Cl)cc2)cc1` [Example 178, (3R)-3-amino-5-[(4-chlorophenyl)methyl]-8-fluoro-1,1,4-trioxo-N-{[4-(prop-2-yn-1-yloxy)phenyl]methyl}-2,3,4,5-tetrahydro-1λ^6,5-benzothiazepine-7-carboxamide], the EC50 (with CD4 T cells; in experiment [1] (setting [3]); in experiment [1] (setting [4]); in the experiment on CD8 T cells) was less than 1580 nM each time.

Regarding `N[C@H]1CS(=O)(=O)c2ccc(C(=O)N[C@@H]3CC3(F)F)cc2N(Cc2ccc(C(F)(F)F)cc2)C1=O` [Example 179, (3R)-3-amino-N-[(1R)-2,2-difluorocyclopropyl]-1,1,4-trioxo-5-{[4-(trifluoromethyl)phenyl]methyl}-2,3,4,5-tetrahydro-1λ^6,5-benzothiazepine-7-carboxamide], the EC50 in the experiment with CD4 T cells was less than 1580 nM; in experiment [1] (setting [3]), 1580 to 5010 nM; in experiment [1] (setting [4]), less than 1580 nM; in the experiment with CD8 T cells it was less than 1580 nM.

Turning to `N[C@H]1CS(=O)(=O)c2ccc(C(=O)NC3CC3(F)F)cc2N(Cc2ccc(Br)cc2)C1=O` (stereo partly drawn) [Example 180, (3R)-3-amino-5-[(4-bromophenyl)methyl]-N-(2,2-difluorocyclopropyl)-1,1,4-trioxo-2,3,4,5-tetrahydro-1λ^6,5-benzothiazepine-7-carboxamide], the EC50 (in the experiment on CD4 T cells; in experiment [1] (setting [3]); in experiment [1] (setting [4]); in the experiment with CD8 T cells) was less than 1580 nM throughout.
